Data as given in patent US10028992B2, “Methods of treating muscular dystrophy” (BOARD OF REGENTS OF THE NEVADA SYSTEM OF HIGHER EDUCATION …, priority 2012, dated 2018).

Tested on: α7 integrin promoter
Assay: muscle cell-based assay: α7βgal+/− myoblasts/myotubes, LacZ reporter, β-galactosidase cleavage of FDG
Parameters: species or system mouse
Conditions: Myotubes; for Results in a α7+/− β-galactosidase assay, Myotubes, 0.5 uM: compound at 0.5 uM; for Results in a α7+/− β-galactosidase assay, Myotubes, 1 uM: compound at 1 uM; for Results in a α7+/− β-galactosidase assay, Myotubes, 5 uM: compound at 5 uM; for Results in a α7+/− β-galactosidase assay, Myotubes, 10 uM: compound at 10 uM; for Results in a α7+/− β-galactosidase assay, Myotubes, 20 uM: compound at 20 uM; for Results in a α7+/− β-galactosidase assay, Myotubes, 40 uM: compound at 40 uM
How it was run: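 Fluorescein generated from FDG by β-galactosidase reports α7 integrin promoter activity in differentiated myoblasts from α7+/− LacZ knock-in pups. Screening hits then went to dose-response, western blotting and a myostatin counterscreen.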

Structure (SMILES) | Results in a α7+/− β-galactosidase assay, Myotubes, 0.5 uM | Results in a α7+/− β-galactosidase assay, Myotubes, 1 uM | Results in a α7+/− β-galactosidase assay, Myotubes, 5 uM | Results in a α7+/− β-galactosidase assay, Myotubes, 10 uM | Results in a α7+/− β-galactosidase assay, Myotubes, 20 uM | Results in a α7+/− β-galactosidase assay, Myotubes, 40 uM
CC(NC(=O)c1ccc(C(C)(C)C)cc1)C(c1cccs1)N1CCOCC1 (stereo not drawn) [drawing 402] | 0.08612 | 0.07635 | 0.06551 | 0.1287 | −0.144 | −0.1386
CCC(=O)c1ccc(OCC(O)CN2CCOC(C)C2)cc1.O=C(O)C(=O)O (stereo not drawn) [drawing 403] | 0.08149 | 0.03201 | −0.09666 | −0.1187 | 0.08332 | 0.1461
CC1CCN(C(CNS(=O)(=O)c2ccccc2)c2ccccc2)CC1 (stereo not drawn) [drawing 404] | 0.1307 | 0.1946 | −0.1201 | −0.1176 | −0.1296 | −0.1429
COC(=O)c1ccc(/N=N/c2ccccc2)cc1 [drawing 405] | −0.111 | 0.1978 | −0.1462 | −0.2093 | −0.1861 | −0.2357
CN(CCC1CCCCO1)C(=O)CCc1nnc(CCCCc2ccccc2)o1 (stereo not drawn) [drawing 407] | 0.03419 | 0.03033 | −0.2337 | −0.1125 | −0.1283 | −0.1202
c1ccc(-c2nn[nH]n2)nc1 [drawing 408] | −0.05084 | −0.03177 | −0.024 | −0.07161 | 0.03157 | 0.04635
O=C(N/N=C/c1c[nH]c2ccccc12)c1cc(Cl)ccc1O [drawing 409] | −0.05672 | −0.09286 | 0.2441 | −0.1364 | 0.01214 | −0.2587
O=C(O)C(Cc1ccc(O)cc1)N1C(=O)c2ccccc2C1=O (stereo not drawn) [drawing 411] | 0.0905 | 0.1588 | 0.2927 | −0.09211 | 0.2266 | 0.06733
CCN(CC)C(=O)c1sc2nc(-c3ccc(OC)cc3)cn2c1C [drawing 412] | 0.08584 | 0.05066 | 0.1198 | −0.03387 | −0.01472 | −0.1357
Cc1ccsc1-c1nnc(S)n1C1CCCCC1 [drawing 413] | 0.2221 | 0.09759 | 0.1567 | −0.1231 | 0.1272 | −0.178
